Results from ChEMBL document CHEMBL4840358, “Discovery of Modified Amidate (ProTide) Prodrugs of Tenofovir with Enhanced Antiviral Properties” (J Med Chem, 2021).

Tested on: not listed separately
Assay: Cytotoxicity against human HepG2-hNTCP cells incubated for 3 days by XTT assay
Assay type: cell-based
Settings: time 3 day

| Structure (SMILES) | CC50 at 72 h |
| --- | --- |
| COC(=O)[C@H](Cc1ccc(O[P@@](=O)(CO[C@H](C)Cn2cnc3c(N)ncnc32)N[C@@H](C)C(=O)OC(C)C)cc1)NC(=O)C(F)(F)F | > 50000 nM |
| CC(C)OC(=O)[C@H](C)NP(=O)(CO[C@H](C)Cn1cnc2c(N)ncnc21)Oc1ccc(C[C@@H](C(=O)CC2CCCC2)N(CCCc2ccccc2)Cc2ccccc2)cc1 (stereo partly specified) | 46000 nM |
| CC(C)OC(=O)[C@H](C)NP(=O)(CO[C@H](C)Cn1cnc2c(N)ncnc21)Oc1ccc(C[C@H](NC(=O)OCc2ccccc2)C(=O)OC2CCCC2)cc1 (stereo partly specified) | > 50000 nM |
| CC(C)OC(=O)[C@H](C)N[P@@](=O)(CO[C@H](C)Cn1cnc2c(N)ncnc21)Oc1ccc(C[C@H](NCCCc2ccccc2)C(=O)OC2CCCC2)cc1 | > 50000 nM |
| COC(=O)[C@H](Cc1ccc(O[P@@](=O)(CO[C@H](C)Cn2cnc3c(N)ncnc32)N[C@@H](C)C(=O)OC(C)C)cc1)NC(C)=O | > 50000 nM |
| COC(=O)[C@H](Cc1ccc(O[P@](=O)(CO[C@H](C)Cn2cnc3c(N)ncnc32)N[C@@H](C)C(=O)OC(C)C)cc1)NC(C)=O | > 50000 nM |
| CC(C)OC(=O)[C@H](C)NP(=O)(CO[C@H](C)Cn1cnc2c(N)ncnc21)Oc1ccc(C[C@@H](C(=O)OC2CCCC2)N(CCCc2ccccc2)Cc2ccccc2)cc1 (stereo partly specified) | > 50000 nM |
| CC(C)OC(=O)[C@H](C)NP(=O)(CO[C@H](C)Cn1cnc2c(N)ncnc21)Oc1ccc(C[C@H](NC(=O)OCc2ccccc2)C(=O)OC(C)C)cc1 (stereo partly specified) | > 50000 nM |
| CC(C)CCOC(=O)[C@H](Cc1ccc(OP(=O)(CO[C@H](C)Cn2cnc3c(N)ncnc32)N[C@@H](C)C(=O)OC(C)C)cc1)NC(=O)OCc1ccccc1 (stereo partly specified) | > 50000 nM |
| COC(=O)[C@H](Cc1ccc(O[P@](=O)(CO[C@H](C)Cn2cnc3c(N)ncnc32)N[C@@H](C)C(=O)OC(C)C)cc1)NC(=O)C(F)(F)F | > 50000 nM |
| COC(=O)[C@H](Cc1ccc(OP(=O)(CO[C@H](C)Cn2cnc3c(N)ncnc32)N[C@@H](C)C(=O)OC(C)C)cc1)NC(=O)OCc1ccccc1 (stereo partly specified) | 15000 nM |
| CCOC(=O)[C@H](Cc1ccc(OP(=O)(CO[C@H](C)Cn2cnc3c(N)ncnc32)N[C@@H](C)C(=O)OC(C)C)cc1)NC(=O)OCc1ccccc1 (stereo partly specified) | > 50000 nM |

Tested on: not listed separately
Assay: Cytotoxicity against in human MT4 cells after 5 days by XTT assay
Assay type: cell-based
Settings: time 5 day

| Structure (SMILES) | CC50 at 120 h |
| --- | --- |
| COC(=O)[C@H](Cc1ccc(O[P@@](=O)(CO[C@H](C)Cn2cnc3c(N)ncnc32)N[C@@H](C)C(=O)OC(C)C)cc1)NC(=O)C(F)(F)F | > 50000 nM |
| CCC(CC)COC(=O)[C@H](Cc1ccc(O[P@](=O)(CO[C@H](C)Cn2cnc3c(N)ncnc32)N[C@@H](C)C(=O)OC(C)C)cc1)NC(=O)OCc1ccccc1 | 38000 nM |
| COC(=O)[C@H](Cc1ccc(O[P@](=O)(CO[C@H](C)Cn2cnc3c(N)ncnc32)N[C@@H](C)C(=O)OC(C)C)cc1)NC(=O)OCc1ccccc1 | 8500 nM |
| COC(=O)[C@H](Cc1ccc(O[P@@](=O)(CO[C@H](C)Cn2cnc3c(N)ncnc32)N[C@@H](C)C(=O)OC(C)C)cc1)NC(=O)OCc1ccccc1 | 16000 nM |
| COC(=O)[C@H](Cc1ccc(O[P@@](=O)(CO[C@H](C)Cn2cnc3c(N)ncnc32)N[C@@H](C)C(=O)OC(C)C)cc1)NC(=O)c1ccccc1 | > 50000 nM |
| CC(C)OC(=O)[C@H](C)NP(=O)(CO[C@H](C)Cn1cnc2c(N)ncnc21)Oc1ccc(C[C@H](NC(=O)OCc2ccccc2)C(=O)OCc2cccs2)cc1 (stereo partly specified) | 8200 nM |
| CC(C)OC(=O)[C@H](C)NP(=O)(CO[C@H](C)Cn1cnc2c(N)ncnc21)Oc1ccc(C[C@H](NC(=O)OCc2ccccc2)C(=O)OC2CCCC2)cc1 (stereo partly specified) | 8300 nM |
| CCOC(=O)[C@H](Cc1ccc(O[P@@](=O)(CO[C@H](C)Cn2cnc3c(N)ncnc32)N[C@@H](C)C(=O)OC(C)C)cc1)NC(=O)OCc1ccccc1 | 11000 nM |
| COC(=O)[C@H](Cc1ccc(O[P@](=O)(CO[C@H](C)Cn2cnc3c(N)ncnc32)N[C@@H](C)C(=O)OC(C)C)cc1)N(C)C | > 50000 nM |
| CC(C)OC(=O)[C@H](C)N[P@@](=O)(CO[C@H](C)Cn1cnc2c(N)ncnc21)Oc1ccc(C[C@H](NCCCc2ccccc2)C(=O)OC2CCCC2)cc1 | 7600 nM |
| COC(=O)[C@H](Cc1ccc(O[P@@](=O)(CO[C@H](C)Cn2cnc3c(N)ncnc32)N[C@@H](C)C(=O)OC(C)C)cc1)NC(C)=O | > 50000 nM |
| COC(=O)[C@H](Cc1ccc(O[P@](=O)(CO[C@H](C)Cn2cnc3c(N)ncnc32)N[C@@H](C)C(=O)OC(C)C)cc1)NC(C)=O | > 50000 nM |
| CC(C)OC(=O)[C@H](C)NP(=O)(CO[C@H](C)Cn1cnc2c(N)ncnc21)Oc1ccc(C[C@H](NC(=O)OCc2ccccc2)C(=O)OC(C)C)cc1 (stereo partly specified) | 9400 nM |
| CC(C)CCOC(=O)[C@H](Cc1ccc(OP(=O)(CO[C@H](C)Cn2cnc3c(N)ncnc32)N[C@@H](C)C(=O)OC(C)C)cc1)NC(=O)OCc1ccccc1 (stereo partly specified) | 8400 nM |
| COC(=O)[C@H](Cc1ccc(O[P@](=O)(CO[C@H](C)Cn2cnc3c(N)ncnc32)N[C@@H](C)C(=O)OC(C)C)cc1)NC(=O)C(F)(F)F | > 50000 nM |
| CCOC(=O)[C@H](Cc1ccc(OP(=O)(CO[C@H](C)Cn2cnc3c(N)ncnc32)N[C@@H](C)C(=O)OC(C)C)cc1)NC(=O)OCc1ccccc1 (stereo partly specified) | 11000 nM |

Tested on: Hepatitis B virus
Assay: Antiviral activity against HBV infected in human HepG2-hNTCP cells assessed as reduction in HBV DNA incubated for day 1 followed by compound washout and fresh compound addition on following day and day 3, 6 and 10 measured on day 14 post infection by qPCR analysis
Assay type: functional, organism-based
Settings: not given

| Structure (SMILES) | EC50 |
| --- | --- |
| COC(=O)[C@H](Cc1ccc(O[P@@](=O)(CO[C@H](C)Cn2cnc3c(N)ncnc32)N[C@@H](C)C(=O)OC(C)C)cc1)NC(=O)C(F)(F)F | 0.27 nM |
| CC(C)OC(=O)[C@H](C)NP(=O)(CO[C@H](C)Cn1cnc2c(N)ncnc21)Oc1ccc(C[C@@H](C(=O)CC2CCCC2)N(CCCc2ccccc2)Cc2ccccc2)cc1 (stereo partly specified) | 1.3 nM |
| CC(C)OC(=O)[C@H](C)NP(=O)(CO[C@H](C)Cn1cnc2c(N)ncnc21)Oc1ccc(C[C@H](NC(=O)OCc2ccccc2)C(=O)OC2CCCC2)cc1 (stereo partly specified) | 0.7 nM |
| CC(C)OC(=O)[C@H](C)N[P@@](=O)(CO[C@H](C)Cn1cnc2c(N)ncnc21)Oc1ccc(C[C@H](NCCCc2ccccc2)C(=O)OC2CCCC2)cc1 | 4 nM |
| COC(=O)[C@H](Cc1ccc(O[P@@](=O)(CO[C@H](C)Cn2cnc3c(N)ncnc32)N[C@@H](C)C(=O)OC(C)C)cc1)NC(C)=O | 3.2 nM |
| COC(=O)[C@H](Cc1ccc(O[P@](=O)(CO[C@H](C)Cn2cnc3c(N)ncnc32)N[C@@H](C)C(=O)OC(C)C)cc1)NC(C)=O | 7.2 nM |
| CC(C)OC(=O)[C@H](C)NP(=O)(CO[C@H](C)Cn1cnc2c(N)ncnc21)Oc1ccc(C[C@@H](C(=O)OC2CCCC2)N(CCCc2ccccc2)Cc2ccccc2)cc1 (stereo partly specified) | 1.2 nM |
| CC(C)OC(=O)[C@H](C)NP(=O)(CO[C@H](C)Cn1cnc2c(N)ncnc21)Oc1ccc(C[C@H](NC(=O)OCc2ccccc2)C(=O)OC(C)C)cc1 (stereo partly specified) | 4.2 nM |
| CC(C)CCOC(=O)[C@H](Cc1ccc(OP(=O)(CO[C@H](C)Cn2cnc3c(N)ncnc32)N[C@@H](C)C(=O)OC(C)C)cc1)NC(=O)OCc1ccccc1 (stereo partly specified) | 0.2 nM |
| COC(=O)[C@H](Cc1ccc(O[P@](=O)(CO[C@H](C)Cn2cnc3c(N)ncnc32)N[C@@H](C)C(=O)OC(C)C)cc1)NC(=O)C(F)(F)F | 1.6 nM |
| COC(=O)[C@H](Cc1ccc(OP(=O)(CO[C@H](C)Cn2cnc3c(N)ncnc32)N[C@@H](C)C(=O)OC(C)C)cc1)NC(=O)OCc1ccccc1 (stereo partly specified) | 0.6 nM |
| CCOC(=O)[C@H](Cc1ccc(OP(=O)(CO[C@H](C)Cn2cnc3c(N)ncnc32)N[C@@H](C)C(=O)OC(C)C)cc1)NC(=O)OCc1ccccc1 (stereo partly specified) | 3.6 nM |

Tested on: Human immunodeficiency virus 1
Assay: Antiviral activity against HIV-1 infected in MT4 cells assessed as reduction in virus-induced cytopathic effect preincubated for 1 hr followed by viral infection and measured after 5 days by XTT assay
Assay type: functional, organism-based
Settings: Human immunodeficiency virus 1, MT4

| Structure (SMILES) | EC50 |
| --- | --- |
| COC(=O)[C@H](Cc1ccc(O[P@@](=O)(CO[C@H](C)Cn2cnc3c(N)ncnc32)N[C@@H](C)C(=O)OC(C)C)cc1)NC(=O)C(F)(F)F | 150 nM |
| CCC(CC)COC(=O)[C@H](Cc1ccc(O[P@](=O)(CO[C@H](C)Cn2cnc3c(N)ncnc32)N[C@@H](C)C(=O)OC(C)C)cc1)NC(=O)OCc1ccccc1 | 36 nM |
| COC(=O)[C@H](Cc1ccc(O[P@](=O)(CO[C@H](C)Cn2cnc3c(N)ncnc32)N[C@@H](C)C(=O)OC(C)C)cc1)NC(=O)OCc1ccccc1 | 30 nM |
| COC(=O)[C@H](Cc1ccc(O[P@@](=O)(CO[C@H](C)Cn2cnc3c(N)ncnc32)N[C@@H](C)C(=O)OC(C)C)cc1)NC(=O)OCc1ccccc1 | 16 nM |
| COC(=O)[C@H](Cc1ccc(O[P@@](=O)(CO[C@H](C)Cn2cnc3c(N)ncnc32)N[C@@H](C)C(=O)OC(C)C)cc1)NC(=O)c1ccccc1 | 84 nM |
| CC(C)OC(=O)[C@H](C)NP(=O)(CO[C@H](C)Cn1cnc2c(N)ncnc21)Oc1ccc(C[C@H](NC(=O)OCc2ccccc2)C(=O)OCc2cccs2)cc1 (stereo partly specified) | 3.4 nM |
| CC(C)OC(=O)[C@H](C)NP(=O)(CO[C@H](C)Cn1cnc2c(N)ncnc21)Oc1ccc(C[C@H](NC(=O)OCc2ccccc2)C(=O)OC2CCCC2)cc1 (stereo partly specified) | 0.9 nM |
| CCOC(=O)[C@H](Cc1ccc(O[P@@](=O)(CO[C@H](C)Cn2cnc3c(N)ncnc32)N[C@@H](C)C(=O)OC(C)C)cc1)NC(=O)OCc1ccccc1 | 3.3 nM |
| COC(=O)[C@H](Cc1ccc(O[P@](=O)(CO[C@H](C)Cn2cnc3c(N)ncnc32)N[C@@H](C)C(=O)OC(C)C)cc1)N(C)C | 2500 nM |
| CC(C)OC(=O)[C@H](C)N[P@@](=O)(CO[C@H](C)Cn1cnc2c(N)ncnc21)Oc1ccc(C[C@H](NCCCc2ccccc2)C(=O)OC2CCCC2)cc1 | 0.68 nM |
| COC(=O)[C@H](Cc1ccc(O[P@@](=O)(CO[C@H](C)Cn2cnc3c(N)ncnc32)N[C@@H](C)C(=O)OC(C)C)cc1)NC(C)=O | 720 nM |
| COC(=O)[C@H](Cc1ccc(O[P@](=O)(CO[C@H](C)Cn2cnc3c(N)ncnc32)N[C@@H](C)C(=O)OC(C)C)cc1)NC(C)=O | 2200 nM |
| CC(C)OC(=O)[C@H](C)NP(=O)(CO[C@H](C)Cn1cnc2c(N)ncnc21)Oc1ccc(C[C@H](NC(=O)OCc2ccccc2)C(=O)OC(C)C)cc1 (stereo partly specified) | 1.6 nM |
| CC(C)CCOC(=O)[C@H](Cc1ccc(OP(=O)(CO[C@H](C)Cn2cnc3c(N)ncnc32)N[C@@H](C)C(=O)OC(C)C)cc1)NC(=O)OCc1ccccc1 (stereo partly specified) | 0.4 nM |
| COC(=O)[C@H](Cc1ccc(O[P@](=O)(CO[C@H](C)Cn2cnc3c(N)ncnc32)N[C@@H](C)C(=O)OC(C)C)cc1)NC(=O)C(F)(F)F | 540 nM |
| CCOC(=O)[C@H](Cc1ccc(OP(=O)(CO[C@H](C)Cn2cnc3c(N)ncnc32)N[C@@H](C)C(=O)OC(C)C)cc1)NC(=O)OCc1ccccc1 (stereo partly specified) | 17 nM |
